Data: patent publication US12557817B2, “Bioactive peptides having detrimental effects on pest slugs” (priority 2019, dated 2026)

Assays:
[1] = system: two slug GPCRs (receptor A and B) expressed in the Sf9 insect cell line; test: Binding assay with peptides: calcium fluorescence (FLIPR Calcium 6) in Sf9 cells expressing slug GPCRs; assay type: cell-based, Deroceras reticulatum; details: for binding activity / activation of the receptors: alanine-substituted or N-terminally reduced peptides of SEQ ID NO: 3, FIG. 5; for EC50: Sf9 cells expressing receptor A or receptor B, receptor not given
Excerpt: The open reading frames (ORFs) of D. reticulatum GPCRs were inserted into a pIB/V5-His TOPO® TA expression vector (Thermo Fisher Scientific) to be expressed in Sf9 cells as described previously (Choi et al., Gen. Comp. Endocrinol., (2017) 246:354-62). To add a Kozak sequence (G/ANNATGG) in the translation initiation the ORFs of D. reticulatum GPCRs were amplified using specific primer sets. The sequences of two different ORFs of D. reticulatum GPCRs were confirmed after insertion into the expression vector.
Small synthetic peptides derived from the PRXamide family members identified from the gray garden slug and insects (Table 1), were tested to determine their binding activities to two slug GPCRs (receptor A and B) expressed in the Sf9 insect cell line. All peptide ligands of SEQ ID NOs: 1-16 and 19-28, as well as the “RY” dipeptide and “PRY” tripeptide (purity >95%) were synthesized from Peptide 2.0 (Chantily, VA, USA). Sf9 cells were cultured as described previously (Choi et al., supra). About 50,000 cells per well in a 96-well plate (Corning C3603) were incubated at 28° C. overnight. At 48 h, cells were rinsed with 100 μL of fresh medium without fetal bovine serum (FBS). Then, cells were incubated in 95 μL of 1×FLIPR Calcium 6 reagent (Molecular Devices, San Jose, CA, USA) containing 2.5 mM probenecid at room temperature in the dark for 1 h. The reagent-loaded cells were transferred to the Flexstation 3 multimode microplate reader (Molecular Devices) equipped with filters (excitation: 485 nm and emission: 520 nm) and an 8-channel pipettor. Fluorescence measurements from each well on the column were taken every 5 s for 4 min. After 30 s the peptide ligand (10 μL) was added with the pipettor and fluorescent intensity was measured for up to 3 min. Then, 5 μL of 1 μM ionomycin (Thermo Fisher Scientific) was added to the cells to obtain a maximum fluorescence reading. Baseline fluorescence was determined by averaging 5 time points from each well prior to treatment with ligand and the resulting response was expressed as a percent increase in fluorescence relative to baseline value. Cells were tested only once with a ligand then discarded. Data were analyzed using Microsoft Excel as described previously, and half-maximal effective concentration (EC50) values of ligands were determined using GraphPad Prism 6 (GraphPad Software, Inc., San Diego, CA).
The binding affinity to the two receptors of these two peptides, QPPLPRY-NH2 (SEQ ID NO: 3) and QPPVPRY-NH2 (SEQ ID NO: 4), was measured based on specific fluorescent intensity of the Sf9 cells expressing receptor A or receptor B in a 96-well plate. A strong fluorescent signal indicated strong binding activity between the peptide ligand and receptor.
To test the effect of varying individual amino acid residues and varying the length of the peptide of SEQ ID NO: 3, different amino acid residues were replaced with alanine (A), or the overall length of the peptide was reduced by sequentially removing amino acid residues from the N-terminal end of SEQ ID NO: 3 (Table 1, SEQ ID NO: 19, SEQ ID NO: 20, SEQ ID NO: 21, SEQ ID NO: 22, SEQ ID NO: 23, SEQ ID NO: 24, SEQ ID NO: 25, SEQ ID NO: 26, SEQ ID NO: 27, SEQ ID NO: 28). Altered peptides were tested and measured for binding activity with the receptors using the same methods as described above.

[2] = system: gray garden slugs; test: Anti-feeding on peptide-treated lettuce leaf; assay type: in vivo, Deroceras reticulatum; details: lettuce treated with 200 nmol peptide
Method: The gray garden slugs utilized herein (Deroceras reticulatum) were collected in Corvallis, Oregon, USA, and maintained with carrot and lettuce in a controlled incubator (13° C., 90% RH, 14: 10=light:dark, dim light). To test for the effect of the peptides on feeding, slugs were fed a diet of lettuce leaf tissues treated with water alone or with 200 nmol of individual peptides (SEQ ID NO: 19, SEQ ID NO: 25, and SEQ ID NO: 26) dissolved in 10 μL water (FIG. 8). Ten gray garden slugs were used for each treatment and each treatment was replicated three times.

[3] = system: gray garden slugs; test: Mortality after peptide injection into slugs; assay type: in vivo, Deroceras reticulatum; details: 100 nmol injected
Method: The gray garden slugs utilized herein (Deroceras reticulatum) were collected in Corvallis, Oregon, USA, and maintained with carrot and lettuce in a controlled incubator (13° C., 90% RH, 14: 10=light:dark, dim light). To test their effects on slugs, 100 nmol of each of the peptides (SEQ ID NO: 1, SEQ ID NO: 3, SEQ ID NO: 19, SEQ ID NO: 25 and SEQ ID NO: 26) was dissolved in 5 μL of purified water (100 nmol) and injected into 10 gray garden slugs per each treatment. Under dry conditions, after 24 h the slug mortalities observed were 40% with SEQ ID NO: 1, 70% with SEQ ID NO: 3, 90% with SEQ ID NO: 19, 70% with SEQ ID NO: 25, and 70% with SEQ ID NO: 26. […] Under wet conditions, the slug mortalities observed within 24 h were 40% with SEQ ID NO: 19, 40% with SEQ ID NO: 25, and 30% with SEQ ID NO: 26.

[4] = system: gray garden slugs; test: Body weight loss and phenotype after peptide injection into slugs; assay type: in vivo, Deroceras reticulatum; details: for body weight loss relative to water control: 10 nmol injected, after 72 h
Method: The gray garden slugs utilized herein (Deroceras reticulatum) were collected in Corvallis, Oregon, USA, and maintained with carrot and lettuce in a controlled incubator (13° C., 90% RH, 14: 10=light:dark, dim light). To test their effects on slugs, peptides of SEQ ID NO: 3 and SEQ ID NO: 4 were dissolved in 5 μl of purified water (10 nmol) and injected into four gray garden slugs per each treatment. Over 80% of the slug body weight was lost after 72 h when either peptide was injected into the slugs, almost 2-fold higher than the water control (FIG. 3).

[5] = dry conditions (Petri dish), after 24 h
[6] = wet conditions (Petri dish with wet paper towel), within 24 h

| Substance | binding activity / activation of the receptors [1] | slug mortality [3, 5] [%] | slug mortality [3, 6] | also measured |
| --- | --- | --- | --- | --- |
| PPLPRY [SEQ ID NO: 27] | retained the ability to activate the receptors |  |  |  |
| QPALPRY [SEQ ID NO: 21] | maintained binding activity and activated the receptors |  |  |  |
| QAPLPRY [SEQ ID NO: 20] | maintained binding activity and activated the receptors |  |  |  |
| PLPRY [SEQ ID NO: 28] | retained the ability to activate the receptors |  |  |  |
| QPPLPRA [SEQ ID NO: 25] |  | 70 | 40% | anti-feeding ([2]; within 1 h): 66.7%; anti-feeding ([2]; within 2 h): 46.7%; anti-feeding ([2]; within 6 h): 16.7% |
| QPPVPRY [SEQ ID NO: 4, synthetic peptide, source D. reticulatum] |  |  |  | EC50 [1]: 12.7 nM; body weight loss relative to water control [4]: ~2 fold |
| LPRY [SEQ ID NO: 26] | retained the ability to activate the receptors | 70 | 30% | anti-feeding ([2]; within 1 h): 73.3%; anti-feeding ([2]; within 2 h): 48.0%; anti-feeding ([2]; within 6 h): 23.3% |
| QPPLPRY [SEQ ID NO: 3, synthetic peptide, source D. reticulatum] |  | 70 | No mortalities were observed | EC50 [1]: 1.4 nM; body weight loss relative to water control [4]: ~2 fold; phenotypic effects after injection ([4]; injected peptide, FIG. 4): excreted large volumes of milky mucus within 1 minute, exhibited body paralysis, extruding tentacles, weight loss and dehydration |
| APPLPRY [SEQ ID NO: 19] | maintained binding activity and activated the receptors | 90 | 40% | anti-feeding ([2]; within 1 h): 93.3%; anti-feeding ([2]; within 2 h): 91.3%; anti-feeding ([2]; within 6 h): 80.7% |
| QPPAPRY [SEQ ID NO: 22] | maintained binding activity and activated the receptors |  |  |  |
| PMSMLRL [SEQ ID NO: 1, synthetic peptide, source D. reticulatum] |  | 40 |  |  |
